# Test results taken from patent US20060276436A1, “Farnesyl dibenzodiazepinone formulation” (Ecopia BioSciences, Inc., priority 2005, published 2006).
# Several values for one entry are separate records, joined by “and”; a condition that tells them apart may be missing. Equal values may be shown once. Read-outs that look alike come from different tables or passages of the source. Marks after values point to notes of the source that are not given here.
# How the values were obtained:
# [1] = system: human glioma (U-87MG) tumor xenograft; experiment: Human U-87 MG glioblastoma mice model, antitumor efficacy; format: in vivo; settings: SC 30 mg/kg q1d×5 over 2 weeks
# Experimental: Tumor growth was followed every other day by measuring tumor length (L) and width (W) using a calliper. Measurements were converted to tumor volumes (TV; mm^3) using the standard formula, TV=(L×W^2)/2. Tumor volume at day n was expressed as relative tumor volume (RTV) according to the following formula RTV=TVn/TV0, where TVn is the tumor volume at day n and TV0 is the tumor volume at day 0. The percentage of tumor growth inhibition (% TGI) was determined by 1−(mean RTV of treated group/mean RTV of control group)×100. […] Statistical analysis was calculated by the two-tailed unpaired t test using the Prism software. […]
# The human U-87 MG (ATCC® no. HTB-14™) glioblastoma antitumor efficacy study was performed at INSERM U318 (Grenoble, France). […] On each dosing day, Compound 1 stock solutions (24 and 40 mg/mL in bulk Formulation B11) were diluted with sterile 5% dextrose in water (D5W) to prepare a dosing solution of 6 mg/mL of Compound 1 in ready-to-use Formulation D11 (5% ethanol, 5% PEG400, 15% polysorbate 80, and 75% D5W).
# For the human glioblastoma antitumor efficacy study, female athymic (nu/nu) nude mice (6-7 weeks of age) were inoculated SC with 5×10^6 U-87MG cells (day 0). […] Tumor growth inhibition (TGI) was calculated on day 34 post tumor cell inoculation, at which time some animals from the vehicle control group had to be sacrificed due to tumor burden.
# [2] = Pharmacokinetics of Formulation D11 given CIV for 14 days in monkeys; format: in vivo, Cynomolgus monkeys; settings: for Css / T1/2z / Vd / AUC / clearance: 14-day CIV, Mean (SD); for Css: average between 30 h and 14 days; for T1/2z: end of treatment; for Vd / AUC / clearance: iv
# Experimental: Cynomolgus monkeys received continuous IV infusion over 14 days of Compound 1 at 5 mg/kg/day, 15 mg/kg/day, or 30 mg/kg/day. The drug was infused intravenously (24 hours/day) into the femoral vein at a dose rate of 2 ml/kg/hour for 14 consecutive days. Blood samples were removed from each monkey on Days 1, 2, 6, 10, and 15 of the treatment period. Monkeys were bled by venipuncture and samples were collected into tubes containing K2EDTA. On Day 1, samples were collected at 2, 6, and 12 hours after initiation of treatment. Additional samples were collected at 30 hours after the start of infusion (Day 2). On Days 6 and 10, samples were collected at approximately 6 hours after the bag changes. At the end of the 14 days of infusion, on Day 15, samples were collected at 1 hour prior to cessation of dose administration, and at 5 min, 30 min, 1 h, 2 h, 4 h, 8 h, and 24 h following cessation of dose administration.
# [3] = In vivo toxicity of Compound 1 in monkeys
# [4] = Population pharmacokinetic analysis (NONMEM), mouse; format: in vivo; settings: 30 mg/kg; for half-life: CD1, mouse, plasma, iv; for clearance / Vd: CD1, plasma, Mouse (IV); for Vd: read-out: Vss
# Text: Plasma concentrations of Compound 1 were obtained from mice, rats, and monkeys following intravenous injection or continuous infusion. Compound 1 pharmacokinetic parameters in mice, rats, and monkeys were estimated using population pharmacokinetic analysis, a function of the software program NONMEM™ (version 5). Typical population pharmacokinetic parameters for Compound 1 in humans were extrapolated from allometric equations that were derived from pharmacokinetic parameters estimated in the three animal species. […] A two-compartment model with a first-order elimination from the central compartment adequately described Compound 1 plasma concentration-time profiles following intravenous bolus injection (30 mg/kg) in mice and rats, 7-day continuous infusion in rats (50 to 170 mg/kg/day), and 14-day continuous infusion in monkeys (5 to 30 mg/kg/day).
# [5] = cynomolgus monkey, plasma, intravenous, CIV, 30 mg/kg/day
# [6] = cynomolgus monkey, plasma, 5 mg/kg/day
# [7] = cynomolgus monkey, plasma, 15 mg/kg/day
smiles,measurement,setting,value
"CC(C)=CCC/C(C)=C/CC/C(C)=C/CN1C(=O)c2cccc(O)c2Nc2c(O)cc(O)cc21 [Compound 1, 10-farnesyl-4,6,8-trihydroxy-dibenzodiazepin-11-one]",tolerability of dose regimen,[1],well tolerated
same,AUC increase between groups,[2]; 15 mg/kg/day versus 5 mg/kg/day,3.4 fold
same,AUC increase between groups,[2]; 30 mg/kg/day versus 15 mg/kg/day,4.7 fold
same,Css,[2]; 5 mg/kg/day,358^b (85)^ ng/mL
same,T1/2z,[2]; 5 mg/kg/day,12 (3) h
same,Css,[2]; 15 mg/kg/day,"1,173 (340) ng/mL"
same,T1/2z,[2]; 15 mg/kg/day,8.3 (2.2) h
same,Css,[2]; 30 mg/kg/day,"6,283 (3,650) ng/mL"
same,T1/2z,[2]; 30 mg/kg/day,8.1 (1.0) h
same,concentration at 1 day,[2]; [5],2810 ng/mL and ~6.1 µM
same,concentration at 6 day,[2]; [5],4350 ng/mL and ~9.4 µM
same,concentration at 10 day,[2]; [5],~15 µM and 6860 ng/mL
same,concentration at 15 day,[2]; [5],8560 ng/mL and ~18.5 µM
same,Vd,"[2]; cynomolgus monkey, plasma, 5 mg/kg/day, 5 mg/kg/day, read-out: Vss",7.1 L/kg
same,Vd,"[2]; cynomolgus monkey, plasma, 5 mg/kg/day, 5 mg/kg/day, read-out: Vz",10 L/kg
same,Vd,"[2]; cynomolgus monkey, plasma, 15 mg/kg/day, 15 mg/kg/day, read-out: Vss",3.6 L/kg
same,AUC,[2]; [6],119 µg·h/mL
same,clearance,[2]; [6],10.2 mL/min/kg
same,AUC,[2]; [7],400 µg·h/mL
same,clearance,[2]; [7],9.33 mL/min/kg
same,AUC,"[2]; cynomolgus monkey, plasma, 30 mg/kg/day",1870 µg·h/mL
same,Vd,"[2]; cynomolgus, cynomolgus monkey, plasma, 15 mg/kg/day, 15 mg/kg/day, read-out: Vz",6.8 L/kg
same,Vd,"[2]; cynomolgus, cynomolgus monkey, plasma, 30 mg/kg/day, 30 mg/kg/day, read-out: Vss",10.7 L/kg
same,Vd,"[2]; cynomolgus, cynomolgus monkey, plasma, 30 mg/kg/day, 30 mg/kg/day, read-out: Vz",3.2 L/kg
same,clearance,"[2]; cynomolgus, cynomolgus monkey, plasma, 30 mg/kg/day",4.5 mL/min/kg
same,"acute toxicity, tolerability","[3]; 24-hour CIV, doses of 35 mg/kg and 70 mg/kg, infusion rate 2 mL/kg/hour",well tolerated
same,MTD,"[3]; monkey, in vivo, single bolus intravenous administration",~35 mg/kg
same,half-life,"[4]; population PK, read-out: t1/2, α (converted)",4.68 min
same,half-life,"[4]; population PK, read-out: t1/2, β (converted)",149 min
same,clearance,[4]; WT 0.022 Kg,0.533 mL/min
same,Vd,[4]; WT 0.022 Kg,0.009 L
same,clearance,[4]; population PK,24.8 mL/min/kg
same,Vd,[4]; population PK,0.401 L/kg
